Results taken from patent publication US9849170B2, “Microneedle coating composition and microneedle device” (priority 2013, dated 2017).

Assay: Blending effect of lysine hydrochloride on stability (L9 orthogonal table)
Assay type: physicochemical
Details: 2.5% or 5.0% lysine hydrochloride blended; 50° C., 2 weeks; least-squares analysis, FIG. 4
Protocol: A Japanese encephalitis vaccine antigen application solution comprising 70% by mass of a mixture of arginine and an acid, where the blending ratio of each component (unit: % by mass) and the molar ratio of arginine and the acid are shown in Table 7, was applied onto microneedles, and the blending effect of the lysine hydrochloride was evaluated using an L9 orthogonal table. In Table 7, the numerical values in parentheses for each component denote the blending ratios (unit: % by mass) after removal of the volatile component.
A PBS solution of a Japanese encephalitis vaccine antigen was used as a bulk drug, this bulk drug was concentrated by ultrafiltration, and a predetermined amount of an additive was added to the concentrate, followed by mixing to obtain an application solution for microneedles. […] After drying, the microneedles were sealed in MoistCatch (trade name, Kyodo Printing Co., Ltd.) together with PharmaKeep (trade name, Mitsubishi Gas Chemical Company, Inc.), and the stability under each temperature condition was evaluated. […] For the specific activity level of each sample preserved at 50° C. for 2 weeks, the degree of influence by blending of lysine hydrochloride on the specific activity was analyzed by a least-squares method. […]

## Cl.NCCCC[C@H](N)C(=O)O [lysine hydrochloride]
  degree of influence on the specific activity: high
